# Source: US9062026B2, “Fused pyrimidines and substituted quinazolines as inhibitors of p97” (Cleave Biosciences, Inc., priority 2012, dated 2015)
# Like-named read-outs stand apart in the source and are kept apart here.
# Biological target: p97 (Homo sapiens (Human), UniProt P55072)
# Experiment: P97 ATPase biochem assay (ADP Glo)
# Assay type: biochemical
# Experimental: The ATPase assay is performed according the following protocol: Purified enzyme (20 nM p97), substrate (20 μM ATP) and a dose titration of compounds are mixed in buffer (50 mM TRIS pH 7.5, 20 mM MgCl2, 0.02% TX-100, 1 mM DTT, 0.2% (v/v) glycerol) and incubated at 37° C. for 15 minutes. The reaction is terminated and the level of product generated is measured using the ADP Glo Assay Kit (Promega, Madison Wis.). Plotting product generated versus compound concentration and using a four-parameter fit model generates an IC50 value for each compounds.
# [1] = 20 nM p97, 20 μM ATP, 37° C., 15 minutes, read-out: p97 biochem IC50
# Sequence of p97 (P55072 whole entry): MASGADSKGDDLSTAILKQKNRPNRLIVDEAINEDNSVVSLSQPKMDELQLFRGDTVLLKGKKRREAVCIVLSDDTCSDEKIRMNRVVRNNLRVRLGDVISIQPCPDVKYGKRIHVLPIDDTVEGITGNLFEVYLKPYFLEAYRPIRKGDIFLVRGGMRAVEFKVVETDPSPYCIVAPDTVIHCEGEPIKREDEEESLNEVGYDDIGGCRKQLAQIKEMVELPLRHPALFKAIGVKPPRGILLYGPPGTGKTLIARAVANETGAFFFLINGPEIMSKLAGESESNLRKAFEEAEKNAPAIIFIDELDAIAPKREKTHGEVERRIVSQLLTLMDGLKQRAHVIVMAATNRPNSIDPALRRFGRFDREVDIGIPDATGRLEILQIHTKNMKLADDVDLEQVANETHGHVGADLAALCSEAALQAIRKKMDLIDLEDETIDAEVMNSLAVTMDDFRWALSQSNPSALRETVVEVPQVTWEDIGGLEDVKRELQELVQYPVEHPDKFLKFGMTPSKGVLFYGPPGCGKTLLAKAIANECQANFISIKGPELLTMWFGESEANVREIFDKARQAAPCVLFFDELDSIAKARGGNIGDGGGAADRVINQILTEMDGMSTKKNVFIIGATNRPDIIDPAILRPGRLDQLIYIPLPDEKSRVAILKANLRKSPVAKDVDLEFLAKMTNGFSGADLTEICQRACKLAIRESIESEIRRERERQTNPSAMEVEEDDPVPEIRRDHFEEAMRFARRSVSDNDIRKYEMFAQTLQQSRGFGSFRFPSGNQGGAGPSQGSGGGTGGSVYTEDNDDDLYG
SMILES,IC50 [1] [µM],IC50 (read-out: p97 IC50) [µM]
NC(=O)COc1cccc2c(NCc3ccccc3)nc(-n3c(N)nc4ccccc43)nc12,< 2,
Nc1nc2ccccc2n1-c1nc(NCc2ccccc2)c2nc[nH]c2n1,< 5,
COc1cccc2c(NCc3ccccc3)nc(N3C(=O)Cc4ccccc43)nc12,< 2,
"COCCOc1cccc2c(NCc3ccccc3)nc(-n3c(CO)nc4ccccc43)nc12 [{1-[4-(benzylamino)-8-(2-methoxyethoxy)quinazolin-2-yl]-1H-1,3-benzodiazol-2-yl}methanol]",,< 0.3
Cc1cc2ccccc2n1-c1nc(NCc2ccccc2)c2cccc(C#N)c2n1,< 2,
"Clc1cc2ccccc2n1-c1nc2c(c(NCc3ccccc3)n1)CNCC2 [N-benzyl-2-(2-chloro-1H-indol-1-yl)-5H,6H,7H,8H-pyrido[4,3-d]pyrimidin-4-amine]",,< 0.3
COc1cccc2c(NCc3ccccc3)nc(-n3c(=O)n(C)c4ccccc43)nc12,< 5,
"Cc1cc2c(C#N)cccc2n1-c1nc2c(c(NCc3ccccc3)n1)CCCC2 [1-[4-(benzylamino)-5,6,7,8-tetrahydroquinazolin-2-yl]-2-methyl-1H-indole-4-carbonitrile]",,< 0.1
COc1cccc2c(NCc3ccccc3)nc(C3NCc4ccccc43)nc12 (centres unmarked),< 5,
NCCOc1cccc2c(NCc3ccccc3)nc(-n3c(N)nc4ccccc43)nc12,< 2,
COCCOc1cccc2c(NCc3ccccc3)nc(-n3c(N)nc4ccccc43)nc12,< 2,
OCc1cc2ccccc2n1-c1nc2c(c(NCc3ccccc3)n1)CCCC2 [drawing 227],< 2,
Cc1cc2ccccc2n1-c1nc2c(c(NCc3ccccc3)n1)CCCC2,< 2,
COc1cccc2c(NCc3ccccc3)nc(-n3c(/C=C\C#N)cc4ccccc43)nc12 [(2Z)-3-{1-[4-(benzylamino)-8-methoxyquinazolin-2-yl]-1H-indol-2-yl}prop-2-enenitrile],,< 0.3
COc1cccc2c(NCc3ccccc3)nc(-n3c(/C=C/C#N)cc4ccccc43)nc12 [(2E)-3-{1-[4-(benzylamino)-8-methoxyquinazolin-2-yl]-1H-indol-2-yl)prop-2-enenitrile],,< 0.3
COCCOc1cccc2c(NCc3ccccc3)nc(-n3c(CNS(C)(=O)=O)cc4ccccc43)nc12 [N-({1-[4-(benzylamino)-8-(2-methoxyethoxy)quinazolin-2-yl]-1H-indol-2-yl}methyl)methanesulfonamide],,< 0.1
COc1cccc2c(NCc3ccccc3)nc(-c3c(N)[nH]c4ccccc34)nc12,< 2,
Cc1cc2ccccc2n1-c1nc(NCc2ccccc2)c2cccc(C(N)=O)c2n1,< 2,
COc1cccc2c(NCc3ccccc3)nc(-n3cnc4ccccc43)nc12,< 2,
"CCN1CCc2nc(-n3c(C)cc4c(C#N)cccc43)nc(NCc3ccccc3)c2C1 [1-[4-(benzylamino)-6-ethyl-5H,6H,7H,8H-pyrido[4,3-d]pyrimidin-2-yl]-2-methyl-1H-indole-4-carbonitrile]",,< 0.1
Cc1cc2ccccc2n1-c1nc2c(c(NCc3ccccc3)n1)CCNC2,< 2,
COc1cccc2c(NCc3ccccc3)nc(-n3c(C)nc4ccccc43)nc12,< 2,
"Cc1[nH]c2ccccc2c1-c1nc2c(c(NCc3ccccc3)n1)CCCC2 [N-benzyl-2-(2-methyl-1H-indol-3-yl)-5,6,7,8-tetrahydroquinazolin-4-amine]",,< 0.3
COc1cccc2c(NCc3ccccc3)nc(-n3c(OC)cc4ccccc43)nc12 [drawing 204],< 2,

SMILES,IC50 [1] [µM],IC50 (read-out: p97 IC50) [µM]
"c1ccc(CNc2nc(-n3c(CN4CCOCC4)cc4ccccc43)nc3c2CCCC3)cc1 [N-benzyl-2-[2-(morpholin-4-ylmethyl)-1H-indol-1-yl]-5,6,7,8-tetrahydroquinazolin-4-amine]",,< 0.3
"C#CC(=O)NCc1cc2ccccc2n1-c1nc2c(c(NCc3ccccc3)n1)CCCC2 [N-({1-[4-(benzylamino)-5,6,7,8-tetrahydroquinazolin-2-yl]-1H-indol-2-yl}methyl)prop-2-ynamide]",,< 0.1
COC(=O)N1CCc2c(nc(-n3c(CN)cc4ccccc43)nc2NCc2ccccc2)C1,< 2,
Cc1cc2ccccc2n1-c1nc2c(c(NCc3ccccc3)n1)COC2,< 2,
CCc1cc2ccccc2n1-c1nc2c(c(NCc3ccccc3)n1)CCCC2,< 5,
COc1cccc2c(NCc3ccccc3)nc(-n3c(CN)nc4sccc43)nc12,< 2,
"OCc1nc2ccccc2n1-c1nc2c(c(NCc3ccccc3)n1)CCCC2 [{1-[4-(benzylamino)-5,6,7,8-tetrahydroquinazolin-2-yl]-1H-1,3-benzodiazol-2-yl}methanol]",,< 0.3
CS(=O)(=O)N1CCc2c(nc(-n3c(CN)cc4ccccc43)nc2NCc2ccccc2)C1,< 2,
COCCOc1cccc2c(NCc3ccccc3)nc(-n3c(OC)cc4ccccc43)nc12 [N-benzyl-2-(2-methoxy-1H-indol-1-yl)-8-(2-methoxyethoxy)quinazolin-4-amine],,< 0.1
CC(=O)N1CCc2nc(-n3c(C)cc4ccccc43)nc(NCc3ccccc3)c2C1,< 2,
CC(=O)N1Cc2nc(-n3c(C)cc4ccccc43)nc(NCc3ccccc3)c2C1,< 2,
COc1cccc2c(NCc3ccccc3)nc(-n3c(C)cc4ccccc43)nc12,< 2,
"Cc1cc2c(C#N)cccc2n1-c1nc2c(c(NCc3ccccc3)n1)COCC2 [1-[4-(benzylamino)-5H,7H,8H-pyrano[4,3-d]pyrimidin-2-yl]-2-methyl-1H-indole-4-carbonitrile]",,< 0.1
CCc1nc2ccccc2n1-c1nc(NCc2ccccc2)c2cccc(OC)c2n1,< 2,
CCN1CCc2c(nc(-n3c(CN)cc4ccccc43)nc2NCc2ccccc2)C1,< 2,
COc1cccc2c(NCc3ccccc3)nc(-n3c(OC)nc4ccccc43)nc12,< 2,
CNc1nc2ccccc2n1-c1nc(NCc2ccccc2)c2cccc(OC)c2n1,< 2,
CC(=O)C1CCc2c(nc(-n3c(CN)cc4ccccc43)nc2NCc2ccccc2)C1 (centres unmarked),< 2,
CC(=O)NCc1cc2ccccc2n1-c1nc2c(c(NCc3ccccc3)n1)CCCC2 [drawing 230],< 2,
"Cc1cc2ccccc2n1-c1nc2c(c(NCc3ccccc3)n1)CN(C(C)C)CC2 [N-benzyl-2-(2-methyl-1H-indol-1-yl)-6-(propan-2-yl)-5H,6H,7H,8H-pyrido[4,3-d]pyrimidin-4-amine]",,< 0.3
CNCC(=O)N1CCc2c(nc(-n3c(CN)cc4ccccc43)nc2NCc2ccccc2)C1,< 10,
NCc1cc2ccccc2n1-c1cc(NCc2ccccc2)c2c(n1)CN(C(N)=O)CC2,< 2,
COc1cccc2c(NCc3ccccc3)nc(-n3c(CNC(C)=O)cc4ccccc43)nc12 [drawing 223],< 2,
Nc1nc2ccccc2n1-c1nc2c(c(NCc3ccccc3)n1)CCC2,< 2,

SMILES,IC50 [1] [µM],IC50 (read-out: p97 IC50) [µM]
COc1cccc2c(NCc3ccccc3)nc(-n3cc(C)c4ccccc43)nc12,< 10,
COc1cccc2c(NCc3ccccc3)nc(-n3c(N(C)C)nc4ccccc43)nc12,< 2,
COc1cccc2c(NCc3nccs3)nc(-n3c(N)nc4ccccc43)nc12,< 25,
COc1cccc2c(NCc3ccccc3)nc(C3c4ccccc4CN3C)nc12 (centres unmarked),< 10,
COCCOc1cccc2c(NCc3ccccc3)nc(-n3c(C)cc4c(C#N)cccc43)nc12 [1-[4-(benzylamino)-8-(2-methoxyethoxy)quinazolin-2-yl]-2-methyl-1H-indole-4-carbonitrile],,< 0.03
COc1cccc2c(NCc3ccccc3)nc(-n3c(N)nc4cccc(F)c43)nc12,< 10,
CCC1=NC(C)=C(C)C1c1nc(NCc2ccccc2)c2cccc(OC)c2n1 (centres unmarked),< 25,
Cc1cc2ccccc2n1-c1nc(NCc2ccccc2)c2cccc(CN)c2n1,< 2,
COCCOc1cccc2c(NCc3ccccc3)nc(-n3c(CN(C)C)cc4ccccc43)nc12 [N-benzyl-2-{2-[(dimethylamino)methyl]-1H-indol-1-yl}-8-(2-methoxyethoxy)quinazolin-4-amine],,< 0.1
COc1cccc2c(NCc3ccccc3)nc(-n3c(/C=C(/C#N)C(N)=O)cc4ccccc43)nc12 [(2Z)-3-{1-[4-(benzylamino)-8-methoxyquinazolin-2-yl]-1H-indol-2-yl}-2-cyanoprop-2-enamide],,< 0.1
COCc1nc(-n2c(N)nc3ccccc32)nc(NCc2ccccc2)c1C,< 5,
COc1cccc2c(NCc3ccco3)nc(-n3c(N)nc4ccccc43)nc12,< 5,
COc1cccc2c(NCc3ccccc3)nc(-n3c(=O)[nH]c4ccccc43)nc12,< 2,
"COCC(=O)N1CCc2nc(-n3c(C)cc4c(C#N)cccc43)nc(NCc3ccccc3)c2C1 [1-[4-(benzylamino)-6-(2-methoxyacetyl)-5H,6H,7H,8H-pyrido[4,3-d]pyrimidin-2-yl]-2-methyl-1H-indole-4-carbonitrile]",,< 0.03
Cc1cc2ccccc2n1-c1nc2c(c(NCc3ccccc3)n1)CNC2,< 2,
"c1ccc(CNc2nc(-n3c(N4CCOCC4)nc4ccccc43)nc3c2CCCC3)cc1 [N-benzyl-2-[2-(morpholin-4-yl)-1H-1,3-benzodiazol-1-yl]-5,6,7,8-tetrahydroquinazolin-4-amine]",,< 0.3
COc1cccc2c(NCc3ccccc3)nc(-c3c(C)[nH]c4ccccc34)nc12 [N-benzyl-8-methoxy-2-(2-methyl-1H-indol-3-yl)quinazolin-4-amine],,< 0.1
Cc1cc2ccccc2n1-c1nc2c(c(NCc3ccccc3)n1)CCN(C(=O)OC(C)(C)C)C2,< 2,
COc1cccc2c(NCc3ccccc3)nc(-n3c(C)nc(C)c3C)nc12,< 25,
CNCCN1CCc2c(nc(-n3c(CN)cc4ccccc43)nc2NCc2ccccc2)C1,< 10,
COc1nc2ccccc2n1-c1nc(NCc2ccccc2)c2c(n1)C(=O)NCC2,< 5,
COc1nc2ccccc2n1-c1nc(NCc2ccccc2)c2ncsc2n1,< 2,
COCc1cccc2c(NCc3ccccc3)nc(-n3c(N)nc4ccccc43)nc12,< 2,
